Experimental data: patent US9006445B2, “Polymorphic form of pridopidine hydrochloride” (Ivax International GmbH, priority 2011, dated 2015)
Where two headings read alike, the source gives them in different places.

Assays:
[1] = 25° C.
Experimental: Dynamic vapour sorption (DVS) measurements were conducted using a Q5000 SA from TA instruments.
Experiments were conducted in two sorption/desorption cycles between 0% RH and 95% RH. Prior to the first sorption cycle the sample was equilibrated at 20% RH and the initial weight recorded. Samples were analyzed in an aluminium pan. Humidity was brought down to 0% RH and the sample dried until the weight had stabilized within a given limit. The temperature was held constant at 25° C. Maximum step time was 720 min. Gas flow was 200 cm3/min.

[2] = for Particle size D10 / Particle size D50 / Particle size D90: image analysis; for Aspect ratio AR10 / Aspect ratio AR50 / Aspect ratio AR90: longest divided by shortest particle dimension
Experimental: Microscopic analysis was carried out using a Zeiss Axiolab microscope (Carl Zeiss, Göttingen, Germany). Photomicrographs were captured using a DeltaPix digital camera and Deltapix software version 1.6 (Maaloev, Denmark). […] The particle size was determinated using Motic Image Plus 2.0 software (Motic Group Inc, China), calibrated to pictures of reference scales taken with the used objectives.

[3] = triplicate; for bulk density: 50.0 g sample; for tapped density: 2500 taps at 100 taps/min
Experimental: Density determinations were performed as described in Ph. Eur. 2.9.34. The method was modified as the sample amount placed in the 250 ml volumetric glass cylinder was 50.0 g and 2500 taps were run at 100 taps/min. The measurements were done in triplicate.

[4] = conclusion from calculated Tt and seeding experiment
Experimental: (§1) In order to confirm this finding experimentally, a seeding experiment was carried out, where mixtures of the two forms were slurried in an organic solvent for 4 hours at various temperatures.

[5] = mixtures of the two forms slurried in organic solvent for 4 hours, XRPD
Experimental: as §1

Row | hygroscopicity (DVS) ([1]; below 80% RH) | hygroscopicity (DVS) ([1]; in excess of 80% RH) | Particle size D10 [2] | Particle size D50 [2] | Particle size D90 [2] | Aspect ratio AR10 [2] | Aspect ratio AR50 [2] | Aspect ratio AR90 [2] | bulk density [3] | tapped density [3] | temperature at which the form is the thermodynamically most stable form [4] | temperature at which the polymorphic outcome of slurrying was this form [5] | SMILES
1 | non-hygroscopic | deliquescent | 49 μm | 170 μm | 363 μm | 1.1 | 1.6 | 2.9 | 0.382 g/mL | 0.486 g/mL | above 127 °C | above 130 °C | CCCN1CCC(c2cccc(S(C)(=O)=O)c2)CC1.Cl [Form II, 4-(3-methanesulfonyl-phenyl)-1-propyl-piperidine hydrochloride salt]
2 | non-hygroscopic | deliquescent | 9 μm | 21 μm | 42 μm | 1.6 | 3.1 | 5.8 | 0.212 g/mL | 0.264 g/mL | above 127 °C | below 125 °C | CCCN1CCC(c2cccc(S(C)(=O)=O)c2)CC1 [Form I, 4-(3-methanesulfonyl-phenyl)-1-propyl-piperidine]
